This note sets out measurements from patent US20170342451A1, “BIOSYNTHESIS OF PACLITAXEL INTERMEDIATE” (Board of Trustees of Michigan State University, priority 2012, published 2017).

The Km is the substrate concentration at which the rate is half of its maximum.

For this assay, the target named is T1, TycA (Brevibacillus parabrevis, UniProt P09095).
T1 construct: this wild-type tycA cDNA encoding the A-, T-, and E-domains was subcloned into a pSU18 vector; made in house; host or cells: Escherichia coli BL21(DE3)
T1 sequence (P09095 with tags, fused parts or gaps): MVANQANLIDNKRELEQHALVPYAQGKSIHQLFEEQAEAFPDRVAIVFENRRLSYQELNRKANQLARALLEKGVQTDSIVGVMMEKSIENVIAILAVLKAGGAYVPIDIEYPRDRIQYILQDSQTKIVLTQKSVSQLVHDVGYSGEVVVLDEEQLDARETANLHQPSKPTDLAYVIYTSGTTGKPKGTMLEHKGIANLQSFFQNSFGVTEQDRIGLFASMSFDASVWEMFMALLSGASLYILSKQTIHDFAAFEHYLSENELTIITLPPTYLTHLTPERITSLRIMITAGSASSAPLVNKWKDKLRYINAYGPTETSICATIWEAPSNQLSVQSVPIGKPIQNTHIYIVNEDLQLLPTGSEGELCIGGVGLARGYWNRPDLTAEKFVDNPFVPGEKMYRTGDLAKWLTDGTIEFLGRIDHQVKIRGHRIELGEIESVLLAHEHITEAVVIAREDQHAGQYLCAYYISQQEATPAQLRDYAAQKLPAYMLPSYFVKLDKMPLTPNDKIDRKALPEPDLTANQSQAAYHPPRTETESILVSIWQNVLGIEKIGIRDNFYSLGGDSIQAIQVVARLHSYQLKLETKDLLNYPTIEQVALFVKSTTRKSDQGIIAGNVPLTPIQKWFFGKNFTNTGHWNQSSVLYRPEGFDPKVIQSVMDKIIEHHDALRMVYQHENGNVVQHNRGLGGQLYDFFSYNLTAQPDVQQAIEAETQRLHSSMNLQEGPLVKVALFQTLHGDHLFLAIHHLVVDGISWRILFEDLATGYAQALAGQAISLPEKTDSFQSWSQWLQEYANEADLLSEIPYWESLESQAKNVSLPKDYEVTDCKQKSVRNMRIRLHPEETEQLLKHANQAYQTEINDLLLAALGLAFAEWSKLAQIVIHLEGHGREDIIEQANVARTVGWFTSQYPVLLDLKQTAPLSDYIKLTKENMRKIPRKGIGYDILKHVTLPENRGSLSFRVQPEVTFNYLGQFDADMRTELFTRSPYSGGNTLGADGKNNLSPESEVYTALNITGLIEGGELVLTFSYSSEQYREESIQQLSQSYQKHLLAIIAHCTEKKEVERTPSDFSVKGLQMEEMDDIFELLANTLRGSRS
Nature of the assay: CoA ligase reaction kinetics, TycA. It counts as biochemical, Brevibacillus brevis. Conditions: for kcat^CoA: turnover with CoA at apparent saturation. The protocol:
Under steady-state conditions, (S)-α-phenylalanine, (R)-β-phenylalanine, and (2R,3S)-phenylisoserine at 5, 10, 20, 40, 80, 160, 250, 500, 1000 and 2000 μM were separately incubated with TycA or TycA-S563A (20 μg) for 30 min. At the end of each reaction, and prior to mass spectrometry analysis, acetyl CoA (1 μM) was added as the internal standard to each sample to correct for variations of the analyte. The products of the enzyme-catalyzed reaction were quantified by a liquid chromatography multiple reaction monitoring (LC-ESI-MRM) mass spectrometry technique (Anderson & Hunter, Mol. Cell. Proteomics 5: 573-588 (2006)) on the Quattro-Premier Electro-Spray Mass Spectrometer coupled with Acquity® UPLC system fitted with a C18 Ascentis Express column (2.5×50 mm, 2.7 μm) at 30° C. An aliquot (5 μL) of each sample was loaded onto the column and the analytes were eluted with a solvent gradient of acetonitrile (Solvent A) in 0.05% triethylamine in distilled water (Solvent B). Elution was held at 2.5% Solvent A for 3.17 min, increased to 100% Solvent A over 5 sec with a 2-min hold, and then returned to 2.5% Solvent A over 5 sec with a 50-sec hold. The flow rate employed was 0.4 mL/min. The effluent from the chromatography column was directed to the mass spectrometer where the first quadrupole mass analyzer (in negative ion mode) was set to select for the molecular ion of a biosynthesized acyl CoA product. The selected ion was then directed to a collision gas chamber where the collision energy was optimized to maximize the abundance of a single signature fragment ion (m/z 408, characteristic of acyl CoA thioesters) resolved in the second quadrupole mass analyzer by the MRM method. The peak area under the curve of fragment ion m/z 408 for each biosynthetic phenylpropionyl CoA thioester was converted to concentration by comparing the peak area of the same ion produced by authentic CoA (at 0.05, 0.1, 0.2, 0.4, 0.8, 1.6, 3.2, 6.4, 12.5, 25, 50, 100 μM) using linear regression analysis.
The KM values of TycA and TycA-S563A for CoA were assessed by incubating each enzyme separately with (S)-α-phenylalanine (1 mM), MgCl2 (3 mM), ATP (1 mM), and CoA at 0.05, 0.1, 0.2, 0.4, 0.8, 1.6, 3.2, 6.4, 12.8 and 25.6 mM at 31° C. for 20 min. At the end of each reaction and prior to mass spectrometry analysis, acetyl CoA (1 μM) was added as the internal standard to each sample to correct for variations of the analyte. The products of the enzyme-catalyzed reaction were quantified by LC-ESI-MRM, and the monitored fragment ion (m/z 408) derived from the CoA moiety of the thioester analytes in the effluent was quantified identically to the procedure described earlier herein.

[1] abbreviates: TycA, CoA with (S)-α-Phe as cosubstrate.

SMILES strings stand for the structures.

For the compound `N[C@H](CC(=O)O)c1ccccc1` [(R)-β-Phe, (R)-β-phenylalanine], under “TycA with CoA”, the “catalytic preference of TycA, higher than for (2R,3S)-Phenylisoserine” value worked out at 10 fold and the “catalytic preference of TycA, higher than for (S)-α-Phe” value amounted to 5 fold. Further, the “kcat^CoA” value under setting [1] came to 1.6 ± 0.3 min⁻¹.
Turning to `N[C@@H](c1ccccc1)[C@@H](O)C(=O)O` [(2R,3S)-PheIso, (2R,3S)-phenylisoserine], the Km (TycA, CoA 1 mM, ATP 1 mM, MgCl2 3 mM, 31° C., CoA with (S)-α-Phe as cosubstrate) is 89.3 ± 15 µM. For the same compound, under setting [1], the “kcat^CoA” value was 0.25 ± 0.02 min⁻¹.
